This is an account of results in US8008464B2, “SSX-4 peptides presented by HLA class II molecules” (Ludwig Institute for Cancer Research Ltd., priority 2004, dated 2011).

Where only a bound is given, the exact number is not on record here.

The assay relates to circulating CD4+ T cells from melanoma patients and healthy donors. Briefly: Intracellular IFN-γ staining of in vitro stimulated CD4+ T cell cultures (flow cytometry). Format: cell-based, human. To be noted: after second cycle of in vitro stimulation with SSX-4 peptide pool. The procedure: In vitro stimulation of SSX-4 specific T cells was carried out as described previously (Ayyoub, M., et al., 2004, An immunodominant SSX-2-derived epitope recognized by CD4+ T cells in association with HLA-DR, J Clin Invest, 113:1225-1233). Briefly, 1 to 2×10^6 CD4^+ T cells highly enriched (>90%) from PBMC by magnetic cell sorting using a miniMACS magnetic cell separator device (Miltenyi Biotec, Auburn, Calif., USA) were stimulated with autologous antigen presenting cells in the presence of a pool of partially overlapping peptides spanning the entire SSX-4 protein sequence (2 μM each). Two weeks later the culture was tested using the same peptide pool or individual peptides from the pool, as indicated. CD4^+ T cells secreting IFN-γ in response to peptide stimulation were isolated by cytokine guided magnetic cell sorting using the cytokine secretion detection kit (Miltenyi Biotec) and cloned by limiting dilution culture in the presence of PHA (Sigma, St Louis, Mo., USA), allogeneic irradiated PBMC and rhIL-2 as described (Ayyoub, M., et al., 2004, J Clin Invest, 113:1225-1233). Clones were subsequently expanded by periodic (3-4 weeks) stimulation under the same conditions.
For intracellular cytokine secretion detection, T cells were stimulated in the absence or in the presence of peptides at the indicated dose during 4 h as described previously (Ayyoub, M., et al., 2004, J Clin Invest, 113:1225-1233). One hour after the beginning of the incubation, Brefeldin A (10 μg/ml, Sigma) was added to inhibit cytokine secretion. After incubation, cells were stained with anti-CD4 mAb (Becton Dickinson, San Diego, Calif., USA) for 20 min at 4° C. and fixed using formaldehyde, permeabilized with saponine (Sigma, 0.1% in PBS 5% FCS), stained with anti IFN-γ mAb (BD Pharmingen, San Diego, Calif., USA) and analyzed by flow cytometry. Data analysis was performed using Cell Quest software. IFN-γ secretion was assessed as described (Ayyoub, M., et al., 2004, J Clin Invest, 113:1225-1233). T cells (10,000) were incubated in the absence or in the presence of peptides at the indicated dose in 96-well round-bottom plates in 200 μl/well of medium. Where indicated, APC (EBV-B cells, 10,000/well) preincubated or not with antigen and extensively washed, were added. In some experiments tumor cells were used as APC. Where indicated, tumor cells were transiently transfected with SSX-4 cDNA, cloned into pcDNA3.1 vector, using FUGENE (reagent for transferring nucleic acid inside cells) according to the manufacturer's instructions (Roche Diagnostics, Indianapolis, Ind., USA). After 24 h incubation at 37° C., culture supernatants were collected and the content of IFNI determined by ELISA (BioSource International, Camarillo, Calif., USA).
We analyzed CD4^+ T cell responses to SSX-4 in circulating lymphocytes from 4 melanoma patients with detectable SSX-4 expression in the autologous tumor sample and/or autologous tumor line. CD4^+ T cells were isolated from patients' PBMC by magnetic cell sorting and stimulated in vitro with a pool containing 20 amino acid long peptides overlapping by 10 amino acids and spanning the SSX-4 protein sequence, in the presence of irradiated autologous antigen presenting cells (APC). As internal control, PBMC samples from 4 healthy donors were processed and stimulated under the same conditions. Cultures were tested using the SSX-4 peptide pool for the presence of specific, IFNI secreting CD4^+ T cells, by staining with IFN-γ and CD4-specific monoclonal antibodies (FIG. 1A). After the first cycle of in vitro stimulation (Table 1) no clear responses were detectable in patients' samples, although the proportion of IFN-γ secreting CD4^+ T cells was 2 to 3 fold higher in the presence than in the absence of the peptide pool in the case of 3/4 patients. In contrast, after the second cycle of in vitro stimulation, specific responses to the SSX-4 peptide pool were clearly detected for 3/4 patients. […]

Where [1] appears, read: patient LAU 14, no peptide 0.03.
Setting [2] is: patient LAU 97, no peptide 0.02.

On to “SSX-4 1-20: 20 amino acid long peptide of the overlapping pool, SSX-4 residues 1-20 (MNGDDAFARRPRDDAQISEK; UniProt O60224 1-20, looked up, fragment)”, for which the “percent of CD4+ IFN-γ secreting cells” value is, setting by setting: (patient 331, no peptide 0.03) below 0.01%; under setting [1], 0.07%; under setting [2], below 0.01%.
“SSX-4 11-30: 20 amino acid long peptide of the overlapping pool, SSX-4 residues 11-30 (PRDDAQISEKLRKAFDDIAK; UniProt O60224 11-30, looked up, fragment)”: the “percent of CD4+ IFN-γ secreting cells” value runs as follows: (patient 331, no peptide 0.03) 0.02%; under setting [1], below 0.01%; under setting [2], below 0.01%.
Turning to “SSX-4 21-40: 20 amino acid long peptide of the overlapping pool, SSX-4 residues 21-40 (LRKAFDDIAKYFSKKEWEKM; UniProt O60224 21-40, looked up, fragment)”, the “percent of CD4+ IFN-γ secreting cells” value by setting is: (patient 331, no peptide 0.03) 0.02%; under setting [1], 0.04%; under setting [2], below 0.01%.
“SSX-4 71-90: 20 amino acid long peptide of the overlapping pool, SSX-4 residues 71-90 (MRSKRAADFHGNDFGNDRNH; UniProt O60224 71-90, looked up, fragment)”: the “percent of CD4+ IFN-γ secreting cells” value by setting is: (patient 331, no peptide 0.03) 0.05%; under setting [1], 0.03%; under setting [2], below 0.01%.
Regarding “SSX-4 81-100: 20 amino acid long peptide of the overlapping pool, SSX-4 residues 81-100 (GNDFGNDRNHRNQVERPQMT; UniProt O60224 81-100, looked up, fragment)”, the “percent of CD4+ IFN-γ secreting cells” value is, setting by setting: (patient 331, no peptide 0.03) 0.02%; under setting [1], below 0.01%; under setting [2], 0.02%.
In the case of “SSX-4 91-110: 20 amino acid long peptide of the overlapping pool, SSX-4 residues 91-110 (RNQVERPQMTFGSLQRIFPK; UniProt O60224 91-110, looked up, fragment)”, the “percent of CD4+ IFN-γ secreting cells” value is, setting by setting: (patient 331, no peptide 0.03) 0.02%; under setting [1], 0.03%; under setting [2], below 0.01%.
The like results for “SSX-4 111-130: 20 amino acid long peptide of the overlapping pool, SSX-4 residues 111-130 (IMPKKPAEEENGLKEVPEAS; UniProt O60224 111-130, looked up, fragment)” were, in that order, 0.01%, 0.01% and below 0.01%.
On to “SSX-4 121-140: 20 amino acid long peptide of the overlapping pool, SSX-4 residues 121-140 (NGLKEVPEASGPQNDGKQLC; UniProt O60224 121-140, looked up, fragment)”, for which the “percent of CD4+ IFN-γ secreting cells” value reads like this: (patient 331, no peptide 0.03) 0.01%; under setting [1], below 0.01%; under setting [2], below 0.01%.
For the substance “SSX-4 131-150: 20 amino acid long peptide of the overlapping pool, SSX-4 residues 131-150 (GPQNDGKQLCPPGNPSTLEK; UniProt O60224 131-150, looked up, fragment)”, the “percent of CD4+ IFN-γ secreting cells” value runs as follows: (patient 331, no peptide 0.03) 0.02%; under setting [1], 0.01%; under setting [2], below 0.01%.
The like results for “SSX-4 141-160: 20 amino acid long peptide of the overlapping pool, SSX-4 residues 141-160 (PPGNPSTLEKINKTSGPKRG; UniProt O60224 141-160, looked up, fragment)” were, in that order, 0.01%, 0.03% and below 0.01%.
Turning to “SSX-4 171-188: C-terminal peptide of the overlapping pool, SSX-4 residues 171-188 (RKQLVVYEEISDPEEDDE; UniProt O60224 171-188, looked up, fragment)”, the “percent of CD4+ IFN-γ secreting cells” value by setting is: (patient 331, no peptide 0.03) 0.02%; under setting [1], below 0.01%; under setting [2], 0.01%.
